According to patent publication US9844224B2, “Bitter alkaloid containing consumables comprising bitter blockers” (GIVAUDAN SA, priority 2008, dated 2017):

Legend:
[1] = test system: sweet sensitive panelists; test: Ranking with R-index analysis: isointensity of HDG to sucrose; type: in vivo, human
Description: (§1) All examples were performed with sweet sensitive panelists able to detect at least 0.5% of sucrose or less, unless stated otherwise. The concentration detectable by the average consumer will be higher. The results were obtained using 20 panelists in two replications.
The sucrose concentration that tastes isointense in sweetness to HDG was determined using samples of 15 ppm and 20 ppm, each of which was directly compared to a sucrose sample (sucrose solutions of 0.5%, 1%, 1.5% and 2% concentration). Fifteen milliliters of each blinded sample was presented, at room temperature, in random order to 20 sweet sensitive panelists. In two replications (over 1 session), panelists were asked to rank the solutions, from least sweet to most sweet. The data was subjected to an R-index analysis.

[2] = test system: sweet sensitive panelists; test: Small panel ranking of HDG in water against sucrose solutions; type: in vivo, human
Description: as §1
Further three small panel testings were performed. HDG samples were prepared in concentrations of 5 ppm, 10 ppm, 15 ppm, and 20 ppm in water. All the samples were coded (presented blind) and given to the panel in random order. The panel was also presented with sucrose solutions for comparison The panel was asked to taste each sample and rank the samples from the least sweet to most sweet.

[3] = test system: naringin and limonin bitterness; conditions: cited from earlier work
[4] = test system: alkaloid bitterness in cocoa; test: Tasting panel, sample vs control: reduction of alkaloid bitterness in cocoa; type: in vivo, human; conditions: 10% unsweetened cocoa powder in water; for bitterness of sample compared to control: room temperature
Description: (§2) All concentrations in % are % (wt/wt), unless otherwise indicated. A tasting panel of 5 to 8 panelists was asked to compare the bitterness of two samples (sample with trilobatin and control without) of various caffeine-containing consumables.
(§3) Different concentrations/ranges were tested, with the ones indicated being the ones with a clear bitter masking effect. While higher concentrations reach a bitter masking effect, panelists found a negative impact on the overall flavor profile at higher concentrations.
A tasting panel of 5 to 8 panelists was asked to compare and record the sensory attribute differences between two samples (sample with trilobatin and control without).
The control and sample contained 10% unsweetened cocoa powder in water (Dutch processed dark cocoa powder, commercially available from Hersheys), the sample additionally contained 0.0005% trilobatin.
The samples were served at room temperature.
A tasting panel of 5 to 8 panelists was asked to compare and record the sensory attribute differences between two samples (sample with HDG and control without).
The control and sample contained 10% unsweetened cocoa powder in water (Dutch processed dark cocoa powder, commercially available from Hersheys), the sample additionally contained 0.0020% (w/w) HDG.

[5] = test system: alkaloid bitterness in brewed black tea; test: Tasting panel, sample vs control: reduction of alkaloid bitterness in tea; type: in vivo, human; conditions: 0.001% trilobatin, warm, most panelists
Description: as §2, §3
Sample and control were brewed black tea (tea bags, Lipton), the sample additionally contained 0.001% trilobatin which was added to the brewed tea.
Samples and controls were served warm.

[6] = test system: alkaloid caffeine bitterness in instant coffee; test: Tasting panel, sample vs control: reduction of alkaloid bitterness in coffee; type: in vivo, human; conditions: instant coffee in water
Description: as §2, §3
The sample and control were instant coffee (Nescafe, Taster's choice) in water, the sample additionally contained 0.001% (10 ppm) trilobatin. All samples/controls were presented warm to the panelists.

[7] = test system: panelist trained for sweetness detection; test: Paired comparison of trilobatin in water versus sucrose solutions (sweetness); type: in vivo, human
Description: (§4) The sweetness detection threshold of trilobatin was determined as detailed below in 1a, 1b and 1c. All examples were performed with sweet sensitive panelists able to detect at least 0.5% of sucrose or less, unless stated otherwise. The concentration detectable by the average consumer will be higher.
Trilobatin (20 ppm, 60 ppm, 100 ppm) in water samples were evaluated for isointensity to sucrose solutions in a concentration of 0, 0.5 and 1% sucrose using a paired comparison method. Samples were paired and tasted left to right with rinsing (water) in between, by one panelist trained for sweetness detection.
The trilobatin samples were compared to either 0%, 0.5%, or 1% sucrose solutions.

[8] = test system: tannin-derived bitterness (tannic acid); test: Tasting panel, sample vs control: tannin bitterness in water; type: in vivo, human; conditions: 0.05%/500 ppm tannic acid in water; 0.000125 to 0.002% trilobatin
Text: as §2
The control and sample contained 0.05%/500 ppm tannic acid in water. The samples additionally contained 0.000125 to 0.002% trilobatin.

[9] = test system: sweet sensitive panelists; test: Ranking method with R-index: isointensity of trilobatin in water to sucrose; type: in vivo, human
Description: as §4
The sensory evaluation was conducted using a ranking method. Samples at ambient temperature were randomly presented in 15 ml blind aliquots (unidentifiable by panelists). Panels consisted of 15 sweet sensitive subjects and samples were presented in 2 replications over 1 session. After tasting each sample, the mouth was rinsed thoroughly with water at ambient temperature prior to tasting the next sample.
Panelists were presented with 0.5%, 1%, 1.5% and 2% sucrose solutions in water and a fifth sample of 100 ppm trilobatin in water. Subjects were asked to rank the samples from low to high with respect to perceived sweet taste. R-indices were calculated for 100 ppm trilobatin versus either 0.5%, 1%, 1.5% or 2% sucrose.
The sensory evaluation was conducted using the method described in example 1b. The panels consisted of 7 sweet sensitive panelists. Panelists were presented with 0.5%, 1%, and 1.5% sucrose solutions in water and a fourth sample of 200 ppm trilobatin in water. Panelists were asked to rank the samples from low to high with respect to perceived sweet taste.

caffeine bitterness = test: Tasting panel, sample vs control: reduction of caffeine bitterness in water; type: in vivo, human; conditions: 200 ppm caffeine in water
Description: as §2, §3
The control and sample contained 0.02 or 200 ppm % caffeine in water, the sample additionally contained 0.000125 to 0.0020 trilobatin.

[10] = test system: alkaloid bitterness in caffeine containing energy drinks; test: Tasting panel, sample vs control: reduction of alkaloid bitterness in an energy drink; type: in vivo, human; conditions: Redbull and Xenergy energy drinks, 0.0005% trilobatin
Description: as §2, §3
The control and sample were caffeine containing energy drinks, the sample additionally contained 0.0005% trilobatin.
The tested caffeine containing energy drinks were sucrose-sweetened glucoronlactone and taurin containing Redbull™ energy drink, and Xenergy™ (Zyions Inc., USA) which is sucralose/Acesulfame-K sweetened and contains vitamin B, calcium, taurine and glucoronlactone.

Structure (SMILES): COc1ccc(CCC(=O)c2c(O)cc(O[C@@H]3O[C@H](CO)[C@@H](O)[C@H](O)[C@H]3O)cc2O)cc1O [HDG, 1-[4-(beta-D-glucopyranosyloxy)-2,6-dihydroxyphenyl]-3-(3-hydroxy-4-methoxyphenyl)-1-propanone]
- sample sweetness (HDG, 15 ppm) ([1]; vs 0.5% sucrose): sweeter
- sample sweetness (HDG, 20 ppm) ([1]; vs 0.5% sucrose): Sweeter
- sample sweetness (HDG, 15 ppm) ([1]; vs 1.0% sucrose): less sweet
- sample sweetness (HDG, 20 ppm) ([1]; vs 1.0% sucrose): Isosweet
- sample sweetness (HDG, 15 ppm) ([1]; vs 1.5% sucrose): less sweet
- sample sweetness (HDG, 20 ppm) ([1]; vs 1.5% sucrose): Less sweet
- sample sweetness (HDG, 15 ppm) ([1]; vs 2.0% sucrose): less sweet
- sample sweetness (HDG, 20 ppm) ([1]; vs 2.0% sucrose): Less sweet
- Rank and taste ([2]; 5 ppm HDG in water): 1 - not sweet
- Isointensity to sucrose ([2]; 10 ppm HDG in water): 0.5 % sucrose
- Rank and taste ([2]; 10 ppm HDG in water): 2 - very slightly sweet
- Isointensity to sucrose ([2]; 15 ppm HDG in water): 0.75% sucrose
- Rank and taste ([2]; 15 ppm HDG in water): 3 - slightly sweet
- Rank and taste ([2]; 20 ppm HDG in water): 4 - sweet
- sweetness threshold detected by sweet sensitive individuals ([2]; HDG in water): about 10 ppm
- sweet taste detection threshold relative to that of trilobatin ([2]; in vivo): about 10 times less
- suppression of naringin and limonin bitterness ([3]; concentrations at or below the sweet taste detection threshold of HDG): not
- naringin and limonin bitterness ([3]; high suprathreshold concentration (ratio taste units sweetener to bitter compound at least 2:1)): suppress
- bitter aftertaste ([4]; 0.0020% (w/w) HDG): bitter aftertaste that remained
- cocoa aroma ([4]; 0.0020% (w/w) HDG): keep their cocoa aroma
- purine alkaloid bitterness (theobromine, caffeine) in the middle ([4]; 0.0020% (w/w) HDG): reduced
- bitterness of sample compared to control ([4]; 0.0020% (w/w) HDG): less bitter

Structure (SMILES): O=C(CCc1ccc(O)cc1)c1c(O)cc(O[C@@H]2O[C@H](CO)[C@@H](O)[C@H](O)[C@H]2O)cc1O [trilobatin, 1-[4-(beta-D-glucopyranosyloxy)-2,6-dihydroxyphenyl]-3-(4-hydroxyphenyl)-1-propanone]
- bitterness of sample compared to control [5]: slightly less bitter
- concentration at which suppression of coffee flavor starts [6]: about 20 ppm
- concentration at which the coffee flavor is significantly affected [6]: ≥ 50 ppm
- alkaloid caffeine bitterness in the middle and towards the end of the temporal bitterness profile ([6]; 0.001% (10 ppm) trilobatin): markedly reduced
- bitter aftertaste ([6]; 0.001% (10 ppm) trilobatin): no bitter aftertaste
- bitterness of sample compared to control ([6]; 0.001% (10 ppm) trilobatin, warm): less bitter
- Taste of trilobatin samples compared to sucrose ([7]; 20 ppm trilobatin in water vs 0% sucrose): isosweet
- Taste of trilobatin samples compared to sucrose ([7]; 20 ppm trilobatin in water vs 0.5% sucrose): notably less sweet
- Taste of trilobatin samples compared to sucrose ([7]; 60 ppm trilobatin in water vs 0% sucrose): weakly sweeter
- Taste of trilobatin samples compared to sucrose ([7]; 60 ppm trilobatin in water vs 0.5% sucrose): less sweet
- Taste of trilobatin samples compared to sucrose ([7]; 100 ppm trilobatin in water vs 0% sucrose): sweeter
- Taste of trilobatin samples compared to sucrose ([7]; 100 ppm trilobatin in water vs 0.5% sucrose): isosweet
- Taste of trilobatin samples compared to sucrose ([7]; 100 ppm trilobatin in water vs 1% sucrose): less sweet
- bitterness of samples and control [8]: similarly bitter
- sample sweetness (trilobatin, 100 ppm) ([9]; vs 0.5% sucrose): Isosweet
- sample sweetness (trilobatin, 100 ppm) ([9]; vs 1.0% sucrose): Less sweet
- sample sweetness (trilobatin, 100 ppm) ([9]; vs 1.5% sucrose): Less sweet
- sample sweetness (trilobatin, 100 ppm) ([9]; vs 2.0% sucrose): Less sweet
- alkaloid bitterness in the middle and towards the end of the temporal bitterness profile ([4]; 0.0005% trilobatin): markedly reduced
- bitter aftertaste ([4]; 0.0005% trilobatin): no bitter aftertaste
- cocoa aroma ([4]; 0.0005% trilobatin): keep their cocoa aroma
- bitterness of sample compared to control ([4]; 0.0005% trilobatin): less bitter
- caffeine bitterness reduced compared to the control (caffeine bitterness; 0.000125% (1.25 ppm) trilobatin): not
- caffeine bitterness compared to the control (caffeine bitterness; 0.0005% (5 ppm) up to 0.0020 (20 ppm) trilobatin): reduced
- bitter aftertaste [10]: slight bitter aftertaste remains
- bitterness in the middle of the temporal pattern [10]: very effectively blocked
- bitterness of sample compared to control [10]: less bitter
